According to patent US9145437B2, “Urea compounds” (Eli Lilly and Company, priority 2013, dated 2015):

How the values were obtained:
[1] = target: T1, mouse SGLT1 (Mus musculus, UniProt Q8C3K6); assay: Sodium-dependent 14C-AMG uptake assay in CHO-K1 cells expressing mouse SGLT1; assay type: cell-based; settings: n=5
T1 construct: expressed in transfected cells
T1 sequence (Q8C3K6 1-665): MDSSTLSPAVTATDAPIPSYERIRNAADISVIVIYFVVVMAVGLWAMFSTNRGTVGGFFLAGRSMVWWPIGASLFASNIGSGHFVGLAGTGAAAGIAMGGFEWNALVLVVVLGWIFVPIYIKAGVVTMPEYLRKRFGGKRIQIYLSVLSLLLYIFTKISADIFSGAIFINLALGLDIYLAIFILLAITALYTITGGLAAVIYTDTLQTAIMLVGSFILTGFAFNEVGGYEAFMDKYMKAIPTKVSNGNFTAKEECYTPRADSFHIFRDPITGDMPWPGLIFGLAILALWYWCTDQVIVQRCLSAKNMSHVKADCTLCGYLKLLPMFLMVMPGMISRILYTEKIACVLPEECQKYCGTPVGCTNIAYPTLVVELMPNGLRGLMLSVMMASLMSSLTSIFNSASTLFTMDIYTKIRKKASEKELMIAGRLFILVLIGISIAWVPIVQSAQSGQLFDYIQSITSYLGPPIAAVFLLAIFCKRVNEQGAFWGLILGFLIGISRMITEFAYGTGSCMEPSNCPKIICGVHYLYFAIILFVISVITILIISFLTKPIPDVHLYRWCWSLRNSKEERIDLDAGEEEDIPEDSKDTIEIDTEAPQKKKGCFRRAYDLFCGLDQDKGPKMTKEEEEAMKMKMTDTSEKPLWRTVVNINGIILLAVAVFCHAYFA
Excerpt: (§1) The cDNA encoding human SGLT1 (slc5al, NM_000343) and mouse SGLT1 (slc5al, NM_019810.4) are purchased from Openbiosystems, Invitrogen and Openbiosystems, respectively. The cDNA is cloned into pcDNA3.1+ for mammalian expression and is stably transfected into Chinese hamster ovary (CHO)-K1 cells using standard mammalian transfection procedures. An SGLT-expressing sub-clone of each over-expressing cell line is selected based on resistance to neomycin (Geneticin, Invitrogen) and activity in the ^14C-α-methyl-D-glucopyranoside (^14C-AMG) uptake assay (see below). Stable SGLT-expressing cells are maintained using standard cell culture techniques.
(§2) The SGLT activity is measured as sodium-dependent ^14C-AMG uptake in the above cell lines described as follows. One hundred μL of culture medium containing 30,000 cells are seeded to each well of a 96-well BioCoat poly-D-lysine plate (Becton Dickson) and cultured at 37° C. overnight. The culture medium is aspirated and cells are washed twice with 200 μL of Reaction Buffer (140 mM NaCl, 2 mM KCl, 1 mM CaCl2, MgCl2, and 14 mM N-2-hydroethylpiperrazine-N′-2-ethanesulfonic acid (Hepes), pH 7.5). The excess buffer is tapped out onto paper towels. Thirty-five μL of Reaction Buffer are added to each well. […] After mixing, the scintillation signal in the plate is counted in a MicroBeta (PerkinElmer). […]

[2] = target: T2, human SGLT1 (Homo sapiens, UniProt P13866); assay: Sodium-dependent 14C-AMG uptake assay in CHO-K1 cells expressing human SGLT1; assay type: cell-based; settings: n=5
T2 construct: expressed in transfected cells
T2 sequence (P13866 1-664): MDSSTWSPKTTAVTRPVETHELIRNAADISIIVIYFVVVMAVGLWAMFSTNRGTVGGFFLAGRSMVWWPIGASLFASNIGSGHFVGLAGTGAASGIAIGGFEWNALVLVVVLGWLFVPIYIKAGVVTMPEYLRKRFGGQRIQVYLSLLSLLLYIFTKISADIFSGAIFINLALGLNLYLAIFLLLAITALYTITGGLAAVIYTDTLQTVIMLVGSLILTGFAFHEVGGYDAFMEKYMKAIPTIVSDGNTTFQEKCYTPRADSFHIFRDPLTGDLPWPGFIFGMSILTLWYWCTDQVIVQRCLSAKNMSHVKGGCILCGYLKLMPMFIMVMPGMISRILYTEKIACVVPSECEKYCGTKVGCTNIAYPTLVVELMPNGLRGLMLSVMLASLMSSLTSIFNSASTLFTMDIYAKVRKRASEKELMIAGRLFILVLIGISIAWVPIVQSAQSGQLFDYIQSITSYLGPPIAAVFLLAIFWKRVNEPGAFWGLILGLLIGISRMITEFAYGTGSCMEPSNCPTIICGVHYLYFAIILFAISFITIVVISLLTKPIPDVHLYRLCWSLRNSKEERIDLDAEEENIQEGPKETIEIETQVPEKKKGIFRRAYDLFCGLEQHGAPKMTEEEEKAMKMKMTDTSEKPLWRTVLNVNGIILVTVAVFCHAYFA
Excerpt: as §1, §2

[3] = test system: C57Bl/6 mice; assay: Glucose lowering effects in oral glucose tolerance test (OGTT); assay type: in vivo, mouse; parameters: Baseline Adjusted AUC (glucose): unit not given here; settings: for Glucose 20 Minute / Glucose 40 Minute / Glucose 60 Minute / Baseline Adjusted AUC (glucose) / Glucose Cmax / Glucose Tmax / Glucose 0 Minute: 10 mg/kg oral, Mean ± SEM; for Glucose 20 Minute: 20 min after 3 g/kg dextrose; for Glucose 40 Minute: 40 min after 3 g/kg dextrose; for Glucose 60 Minute: 60 min after 3 g/kg dextrose; for Glucose 0 Minute: baseline before 3 g/kg dextrose
Method: The test compound is formulated by adding a vehicle of 1% hydroxyethylcellulose, 0.25% Tween® 80 w/antifoam 0.05% to preweighed test compound to make a 1 mg/ml solution. The mixture is probe sonicated for approximately 1 minute. A stir bar is added, and the resulting suspension is stirred continuously throughout dosing.
The first set of mice receiving an OGTT 18 hours after compound administration, the second 8 hours after compound administration. The first set of animals are weighed and body weights used to determine study groups (n=5), within a working range of 26-30 g. After grouping, the mice are orally gavaged with 10 ml/kg of test compound preparation or vehicle, thirty seconds apart. […] Both sets, 18 and 8 hour OGTT, of mice are then fasted overnight by removing access to food, late afternoon before test day. The following morning, the 8 hour OGTT mice are weighed and bled (via tail snip) for glucose. Study groups (n=5) are determine using fasted glucose values, within a working range of 80-100 mg/dl. After grouping the mice are orally gavaged with compound, thirty seconds apart. These mice then receive an OGTT 8 hours after compound administration.
At eight and eighteen hours after each respective compound treatment is started, a baseline blood sample is taken for measuring glucose (from the first animal). The animal is then immediately given an oral dose of 50% dextrose (Hospira®) at 3 g/kg. Blood samples are taken for glucose, exactly thirty seconds apart, by tail vein so that blood is collected in each animal at 20, 40, and 60 minutes after the dextrose dose.

## Cc1cccc2c1c(Cc1ccc(OCCCN3CCCC4(CCN(C(=O)CNC(=O)NCC(C)C)CC4)C3)cc1)cn2[C@@H]1O[C@H](CO)[C@@H](O)[C@H](O)[C@H]1O [Example 1, 1-isobutyl-3-[2-[4-[3-[4-[[4-methyl-1-[(2R,3R,4S,5S,6R)-3,4,5-trihydroxy-6-(hydroxymethyl)tetrahydropyran-2-yl]indol-3-yl]methyl]phenoxy]propyl]-4,9-diazaspiro[5.5]undecan-9-yl]-2-oxo-ethyl]urea]
[1]
  IC50: 0.0149 ± 0.0104 µM
[2]
  IC50: 0.0352 ± 0.0141 µM
[3]; OGTT 8 hrs post dose
  Glucose 20 Minute: 114 ± 3.36 mg/dL
  Glucose 40 Minute: 131 ± 6.81 mg/dL
  Glucose 60 Minute: 125.8 ± 7.52 mg/dL
  Baseline Adjusted AUC (glucose): 2370 ± 315
  Glucose Cmax: 132.9 ± 6.68 mg/dL
  Glucose Tmax: 44 ± 7.48 min
  Glucose 0 Minute: 75.8 ± 2.48 mg/dL
[3]; OGTT 18 hrs post dose
  Glucose 20 Minute: 121.4 ± 5.16 mg/dL
  Glucose 40 Minute: 127 ± 9.78 mg/dL
  Glucose 60 Minute: 125 ± 7.27 mg/dL
  Baseline Adjusted AUC (glucose): 2258 ± 252
  Glucose Cmax: 134.2 ± 6.72 mg/dL
  Glucose Tmax: 44 ± 7.48 min
  Glucose 0 Minute: 79.2 ± 4.51 mg/dL
[3]; normal glycemic C57Bl/6 mouse, eight or eighteen hours after administration
  glucose excursion after oral bolus of 50% dextrose: decrease
